pKd: −log10 of the molar value.
Target: T1, Arap3-PH1 (Homo sapiens, UniProt Q8WWN8)
T1 construct: first PH domain, residues 284-385, C-terminal 6xHis tag (pET22b), expressed in E. coli BL21(DE3)
T1 sequence (Q8WWN8 284-385): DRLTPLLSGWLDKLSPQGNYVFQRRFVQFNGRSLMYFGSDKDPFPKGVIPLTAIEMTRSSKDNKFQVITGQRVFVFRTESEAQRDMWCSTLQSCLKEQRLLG
Assay: SPR (Biacore T200, CM5, protein immobilised), one-site fit
Type: binding

Row | SMILES | pKd
1 | CCCC(=O)OC[C@H](COP(=O)(O)O[C@@H]1[C@H](O)[C@H](O)[C@@H](OP(=O)(O)O)[C@H](OP(=O)(O)O)[C@H]1O)OC(=O)CCC [diC4-PI(4,5)P2] | ~4.21
2 | CCCC(=O)OC[C@H](COP(=O)(O)O[C@H]1[C@H](O)[C@@H](OP(=O)(O)O)[C@H](OP(=O)(O)O)[C@@H](OP(=O)(O)O)[C@H]1O)OC(=O)CCC [diC4-PI(3,4,5)P3] | ~4.94
